Experimental data reported in PMC11181486, “Nonsymmetrically Substituted 1,1′-Biphenyl-Based Small Molecule Inhibitors of the PD-1/PD-L1 Interaction” (ACS Medicinal Chemistry Letters, 2024).
Where two headings read alike, the source gives them in different places.

Tests used:
[1] = Solubility of the compounds (visual evaluation and A600 of dilutions); type: physicochemical; settings: for A600 measurement (averaged from 2 reps): absorbance at 600 nm, 96-well plate, blank 0.0472, values in parentheses unreliable (precipitate); for solubility: kinetic from dmso stock, dilutions from DMSO stock, visually evaluated
Procedure: compound was 500 nM). The dilutions were then visually evaluated according to the following […]
+++ clear solution, no precipitation
++ slight turbidity, no precipitate
+ visible turbidity, no precipitate.
+/- strong turbidity, no precipitation.
- visible precipitation and/or visible precipitation in the original 100% DMSO solution.
The dilutions prepared in this way were applied to a 96-well plate and the absorbance measured […]
at a wavelength of 600 nm.
Table S2, Blank of 10 Measurements.
Table S2. Solubility of the compounds

[2] = target: T1, PD-1/PD-L1 (Homo sapiens, UniProt Q9NZQ7); assay: cell-based; parameters: host or cells: PD-L1+ aAPC/CHO-K1 cells; PD-1 effector Jurkat cells
Procedure: The PD-1/PD-L1 immune checkpoint bioassay (PD-1/PD-L1 Bioassay, Promega) was conducted according to the manufacturer’s protocol. PD-L1+ aAPC/CHO-K1 cells were seeded at a density of […] in 100 μL of medium [Ham’s F12, 10% fetal bovine serum (FBS)] in 96-well white flat-bottomed plates and incubated overnight at 37 °C in the presence of 5% CO2. The next day, the medium was removed, and serial dilutions of small molecule inhibitors were added at 40 μL per well in assay buffer (RPMI1640 + 1% FBS + 1% DMSO). […] The cells were cocultured for 6 h at 37 °C with 5% CO2 followed by a 5 min equilibration at room temperature. Bio-Glo Reagent (Promega) was prepared and added at 80 μL per well. After a 15 min incubation at room temperature, luminescence was measured using a Tecan Spark microplate reader. Data are presented as fold induction of luminescence relative to DMSO-treated cells. EC50 values were calculated using the log(inhibitor) vs response variable slope (four-parameter) analysis model with GraphPad Prism software.
Target sequence in this assay (Q9NZQ7 19-290): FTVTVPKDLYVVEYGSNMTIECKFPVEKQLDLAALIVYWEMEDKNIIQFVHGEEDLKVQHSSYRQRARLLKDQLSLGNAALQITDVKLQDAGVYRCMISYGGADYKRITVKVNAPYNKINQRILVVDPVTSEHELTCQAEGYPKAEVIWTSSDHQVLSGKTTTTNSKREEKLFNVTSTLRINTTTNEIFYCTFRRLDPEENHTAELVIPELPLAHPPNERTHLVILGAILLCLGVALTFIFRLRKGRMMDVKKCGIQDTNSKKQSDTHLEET

[3] = target: T1, PD-1/PD-L1; assay: Homogeneous time-resolved fluorescence (HTRF) PD-1/PD-L1 assay (CisBio kit); type: binding; parameters: Tag1 or Tag2 (kit's undisclosed tag); purchased CisBio; settings: for remaining activity at 0.005 µM: 2 h, read-out: HTRF Fraction of the undissociated protein complex
Procedure: The certified CisBio kit was used to conduct the HTRF assay, adhering to the manufacturer’s guidelines. The assay setup comprised hPD-1, hPD-L1, anti-Tag1 tagged with Europium cryptate (HTRF donor), and anti-Tag2 tagged with XL665 (HTRF acceptor). The experiments utilized final concentrations of 5 nM hPD-L1 and 50 nM hPD-1 in a 20 μL total volume performed in triplicate. Per the CisBio instructions, all components were combined, the plate was incubated at ambient temperature for 2 h, and the TR-FRET (time-resolved fluorescence energy transfer) was carried out using the Tecan Spark 20M. The negatives in the acquired data were subtracted for background, the positives were standardized, and then the data were averaged.
of 50 mM of the compound. Samples were then diluted to 50 nM and used for measurements.
Target sequence in this assay (Q9NZQ7 19-238 limits assumed): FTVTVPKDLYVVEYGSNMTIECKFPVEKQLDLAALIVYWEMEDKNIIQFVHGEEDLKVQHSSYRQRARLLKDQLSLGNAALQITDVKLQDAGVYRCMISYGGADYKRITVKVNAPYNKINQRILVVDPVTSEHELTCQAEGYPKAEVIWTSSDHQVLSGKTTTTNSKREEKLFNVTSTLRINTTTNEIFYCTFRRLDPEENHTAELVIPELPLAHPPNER

[4] = target: T2, hPD-L1 (human PD-L1) (Homo sapiens, UniProt Q9NZQ7); assay: 1H NMR titration with hPD-L1; type: binding; settings: molar ratio protein to compound 1:1
T2 construct: The human PD-L1 IgV domain (residues 18–134, C-terminal His-tag) was expressed and purified; His-tag (C); made in house
Procedure: Representative molecules were evaluated for their interaction with PD-L1 by means of an ^1H NMR titration experiment.

[5] = target: T3, hPD-1/hPD-L1 complex (Homo sapiens, UniProt Q9NZQ7); assay: PD-1/PD-L1 NMR-based antagonist-induced dissociation assay (AIDA); type: binding; settings: complex of hPD-1/hPD-L1 with compound, 1:1 molar ratio protein to compound
T3 construct: The human PD-L1 IgV domain (residues 18–134, C-terminal His-tag) was expressed and purified; His-tag (C); made in house
Procedure: In addition, we performed a PD-1/PD-L1 NMR-based antagonist-induced dissociation assay (AIDA).[42],[43] The AIDA assay was performed by adding a slight molar excess of PD-L1 to PD-1, which causes ^1H NMR signals to broaden corresponding to complex formation (Figure 2). […] However, in Figure 2 (purple), these are obscured by the sharper NMR signals of monomeric PD-1 released from the PD-L1/PD-1 complex.
Figure 2 NMR-based AIDA assay showing that a compound displaces PD-1 from PD-L1.

[6] = target: T1, PD-1/PD-L1; parameters: host or cells: PD-L1+ aAPC/CHO-K1 cells; PD-1 effector Jurkat cells; settings: Figure S2B; ref Koblish et al.; cited from earlier work
Target sequence in this assay (Q9NZQ7 19-290): as the sequence (Q9NZQ7 19-290) above

[7] = PD-L1+ aAPC/CHO-K1 cells cocultured 6 h with PD-1 effector Jurkat cells, read-out: PD-1/PD-L1 blockade, NFAT reporter bioassay EC50
[8] = at the 5 nM concentration of the inhibitor, 5 nM hPD-L1, 50 nM hPD-1

T2 sequence (Q9NZQ7 18-134): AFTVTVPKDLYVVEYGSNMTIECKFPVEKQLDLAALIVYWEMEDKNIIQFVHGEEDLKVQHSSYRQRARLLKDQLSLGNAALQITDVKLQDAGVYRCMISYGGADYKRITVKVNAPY
T3 sequence (Q9NZQ7 18-134, one chain of several): as the sequence (Q9NZQ7 18-134) above

SMILES | A600 measurement (averaged from 2 reps) [1] | solubility [1] [µM] | EC50 [2, 7] [nM] | other results
Cc1c(NC(=O)c2ccc(CNCCCO)cn2)cccc1-c1cccc(NC(=O)c2ccc(CN[C@@H]3CCC[C@H]3O)cn2)c1C [Compound 12] | 0.0476 | > 500 |  | 
Cc1c(NC(=O)c2ccc(CNCCCO)cn2)cccc1-c1cccc(NC(=O)c2ccc(CN(CCO)CCO)cn2)c1C [Compound 3] | 0.2786 | < 500 | 251 | EC50 [2]: ~200 nM
Cc1c(NC(=O)c2ccc(CNCCO)cn2)cccc1-c1cccc(NC(=O)c2ccc(CNCCO)cn2)c1C [Cmpd A, reference compound] |  |  | 14.7 | remaining activity at 0.005 µM [3, 8]: 18%
Cc1c(NC(=O)c2ccc(CN[C@@H](C)CO)cn2)cccc1-c1cccc(NC(=O)c2ccc(CN(C)CCO)cn2)c1C.Cl.Cl.Cl [Compound 2a] | 0.1517 | < 500 | 25 | 
Cc1c(NC(=O)c2ccc(CN[C@@H](C)CO)cn2)cccc1-c1cccc(NC(=O)c2ccc(CN3CCC(O)CC3)cn2)c1C [Compound 10] | 0.1308 | < 500 | 287 | EC50 [2]: > 180 nM; remaining activity at 0.005 µM [3, 8]: 30%
Cc1c(NC(=O)c2ccc(CN[C@@H]3CCC[C@H]3O)cn2)cccc1-c1cccc(NC(=O)c2ccc(CN3CCC(O)CC3)cn2)c1C [Compound 11] | 0.1117 | < 500 | 553 | EC50 [2]: > 180 nM; remaining activity at 0.005 µM [3, 8]: 43%
Cc1c(NC(=O)c2ccc(CNCCCO)cn2)cccc1-c1cccc(NC(=O)c2ccc(CN(C)C(CO)CO)cn2)c1C [Compound 5] | 0.04735 | < 500 | 110 | EC50 [2]: ~200 nM
Cc1c(NC(=O)c2ccc(CNCCO)cn2)cccc1-c1cccc(NC(=O)c2ccc(CNCCCNS(C)(=O)=O)cn2)c1C [Compound 17] | 0.2217 | < 500 | 65.8 | effect on hPD-L1 1H NMR lines (broadening) [4]: oligomerization
Cc1c(NC(=O)c2ccc(CN[C@@H](C)CO)cn2)cccc1-c1cccc(NC(=O)c2ccc(CN[C@@H]3CCC[C@H]3O)cn2)c1C [Compound 13] | 0.1827 | < 500 |  | 
Cc1c(COc2cc(OCc3cccc(C#N)c3)c(CN3C[C@H](O)C[C@@H]3C(=O)O)cc2Cl)cccc1-c1ccc2c(c1)OCCO2 [BMS-1166, reference compound] |  |  |  | HTRF Fraction of the undissociated protein complex [3, 8]: 0.59
Cc1c(NC(=O)c2ccc(CN[C@@H](C)CO)cn2)cccc1-c1cccc(NC(=O)c2ccc(CN(C)CCO)cn2)c1C [Compound 2] | 0.4023 | < 500 | 21.8 | IC50 [3]: 1.46 nM; remaining activity at 0.005 µM [3, 8]: 42%
Cc1c(NC(=O)c2ccc(CNCCCO)cn2)cccc1-c1cccc(NC(=O)c2ccc(CN3CCC(O)CC3)cn2)c1C [Compound 9] | 0.09395 | < 500 | 188 | EC50 [2]: > 180 nM; remaining activity at 0.005 µM [3, 8]: 26%
COC(=O)[C@H](C)NCc1ccc(C(=O)Nc2cccc(-c3cccc(NC(=O)c4ccc(CN5CCCC5)cn4)c3C)c2C)nc1 [Compound 6] | 0.0627 | < 500 |  | 
Cc1c(NC(=O)c2ccc(CN[C@@H]3CCC[C@H]3O)cn2)cccc1-c1cccc(NC(=O)c2ccc(CN(CCO)CCO)cn2)c1C [Compound 4] | 0.2271 | < 500 |  | 
Cc1c(NC(=O)c2ccc(CNCCO)cn2)cccc1-c1cccc(NC(=O)c2ccc(CNCCCNS(C)(=O)=O)cn2)c1C.Cl.Cl.Cl.Cl [Compound 17a] | 0.2848 | < 500 | 76.3 | effect on hPD-L1 1H NMR lines (broadening) [4]: oligomerization; IC50 [3]: 3.06 nM; dissociation of the PD-1/PD L1 complex (HTRF) ([3]; 5 nM inhibitor concentration): 83%; undissociated complex in the HTRF assay ([3]; 5 nM inhibitor concentration): 17%; AIDA rescue percentage of the PD-1 signal [5]: 100%
Cc1c(NC(=O)c2ccc(CNCCO)cn2)cccc1-c1cccc(NC(=O)c2ccc(CNCCNS(C)(=O)=O)cn2)c1C [Compound 16] | 0.0494 | > 500 |  | 
Cc1c(Nc2nccc3cc(CN4CC[C@@H](O)C4)cnc23)cccc1-c1cccc(-c2nc3cc(CN4CC[C@@H](C(=O)O)C4)cc(C#N)c3o2)c1C [INCBO86550] |  |  |  | EC50 [6]: 21.4 nM
Cc1c(NC(=O)c2ccc(CN(C)CCO)cn2)cccc1-c1cccc(NC(=O)c2ccc(CN(CCO)CCO)cn2)c1C [Compound 8] | 0.459 | < 500 |  | 
Cc1c(NC(=O)c2ccc(CN[C@@H]3CCC[C@H]3O)cn2)cccc1-c1cccc(NC(=O)c2ccc(CN(C)CCO)cn2)c1C [Compound 1] | 0.5138 | < 500 |  | 
Cc1c(NC(=O)c2ccc(CNCCCO)cn2)cccc1-c1cccc(NC(=O)c2ccc(CN(C)CCO)cn2)c1C [Compound 7] | 0.3466 | < 500 |  | 
Cc1c(NC(=O)c2ccc(CNCCCO)cn2)cccc1-c1cccc(NC(=O)c2ccc(CN[C@@H](C)CO)cn2)c1C [Compound 14] | 0.05315 | > 500 |  | effect on hPD-L1 1H NMR lines (broadening) [4]: oligomerization
